Results on two molecules are retold here after ChEMBL document CHEMBL1159360, “Bioactive asterosaponins from the starfish Luidia quinaria and Psilaster cassiope. Isolation and structure characterization by two-dimensional NMR spectroscopy” (J Nat Prod, 2003).

One assay deals with RBL-2H3. As to the kind of experiment: Cytotoxicity against rat RBL2H3 after 24 hrs by MTT assay. As to conditions: RBL-2H3, 24 h. The class given is functional, cell-based. Background: Formazan colour is commonly taken as a measure of viable cells.
In a further assay the test system is C6. As to the kind of experiment: Cytotoxicity against rat C6 after 24 hrs by MTT assay. The assay is classed as functional, cell-based.

Calls of active or inactive are those of the source. No cut-off for these calls is given here.

For the molecule `CC(C)CC(=O)C[C@](C)(O)[C@H]1CC[C@H]2[C@@H]3C[C@H](O[C@@H]4O[C@H](C)[C@@H](O)[C@H](O[C@@H]5O[C@H](CO)[C@@H](O[C@@H]6O[C@H](C)[C@@H](O)[C@H](O)[C@H]6O[C@@H]6O[C@H](C)[C@H](O)[C@H](O)[C@H]6O)[C@H](O)[C@H]5O[C@@H]5O[C@H](C)[C@@H](O)[C@H](O)[C@H]5O)[C@H]4O)[C@H]4C[C@@H](OS(=O)(=O)[O-])CC[C@]4(C)C3=CC[C@@]21C.[Na+]` [LUIDIAQUINOSIDE], in the assay with RBL-2H3, inhibition was half-maximal at 31.3 µg/mL (IC50). In the assay on C6, the outcome was inactive.
In the case of `CC(C)CC(=O)C[C@](C)(O)[C@H]1CC[C@H]2[C@@H]3C[C@H](O[C@@H]4O[C@H](C)[C@@H](O)[C@H](O[C@@H]5OC[C@@H](O[C@@H]6O[C@H](CO)[C@H](O)[C@H](O)[C@H]6O[C@@H]6O[C@H](C)[C@H](O)[C@H](O[C@@H]7O[C@@H](CO)[C@H](O)[C@H]7O)[C@H]6O)[C@H](O)[C@H]5O[C@@H]5O[C@H](C)[C@@H](O)[C@H](O)[C@H]5O)[C@H]4O)[C@H]4C[C@@H](OS(=O)(=O)[O-])CC[C@]4(C)C3=CC[C@@]21C.[Na+]` [PSILASTEROSIDE], the IC50 (commonly the concentration at which inhibition is half-maximal) in the assay on RBL-2H3 amounted to 5.4 µg/mL. Further, the outcome in the assay on C6 was inactive.
